Results from patent US7425548B2, “Materials and methods for immune system stimulation” (Variety Chidren's Hospital, priority 2004, dated 2008).
Several values for one entry are separate records, joined by “and”; a condition that tells them apart may be missing. Equal entries are not always repeated.

Key:
[1] = Water solubility; assay type: physicochemical
Experimental: Isolation and characterization of RR1. […] The final RR1 compound, shown in FIG. 3, was isolated in about 0.1% yield of the total dry material used for extraction as a puffy solid that dissolved in water. […] Therefore, detailed polysaccharide analyses such as the glycosyl composition, linkage, molecular weight and conformation of the glucose units at the anomeric center were performed at the Complex Carbohydrate Research Center, University of Georgia, Athens. […] To perform glycosyl linkage analysis, the sample was permethylated three times by the method of Cikanu and Kereck (Ciucanu, I. and F. Kereck Carbohydr. Res., 1984, 131:209-217), hydrolyzed with 2 M trifluroacetic acid, reduced with NaBD4 and acetylated with acetic anhydride/pyridine and the resulted partially methylated alditol acetates (PMAA) were analyzed by GC/MS. […] The conformations at the anomeric center of the glucopyranosyl units were obtained based on the 500 MHz protonNMR spectra recorded in D2O and by comparison with the anomeric proton signals of standard samples. The molecular mass was obtained from the size exclusion chromatography using SUPELCO silica column (1.0×30 cm), eluting with 50 mM ammonium formate buffer at a rate of […]. and detected by the refractive index. […]

[2] = tested on: CEM/VLB tumor cell line; test: MTT cytotoxicity / cell proliferation assay; assay type: cell-based, human; settings: 24 hours, concentrations as high as 1000 μg/ml
Experimental: (§1) FIGS. 4A-4B show cytotoxic analysis of RR1 in normal lymphocytes (a) and tumor cell lines (b). Cells (10^6) were treated with RR1 for 24 hours and cytotoxicity assay performed using MTT cell proliferation kit (Roche Biochemicals). The percentage of surviving cells over control was plotted against RR1 concentrations.
(§2) Immunostimulating Properties. To measure the immune stimulatory property of RR1, the activation of the different subsets of lymphocytes, syntheses of cytokines such as interleukin (IL)-1β, IL-2, IL-4, IL-6, IL-10, IL-12 p70 and p40, IL-18, interferon (IFN)-α and γ, Tumor Necrosis factor (TNF)-α and β, monocyte chemo-attractant protein (MCP)-1, synthesis of nitric oxide (NO), and the extent of oxidative stress elicited in human lymphocytes was analyzed. Normal lymphocytes were isolated by the histopaque density gradient method from fresh blood drawn from healthy volunteers and utilized for various assays. Human leukemic (CEM) and multidrug resistant (CEM/VLB) cell lines were grown in RPMI medium supplemented with 10% fetal bovine serum and antibiotics in 5% CO2 incubator at 37° C.

[3] = tested on: CEM tumor cell line; test: MTT cytotoxicity / cell proliferation assay; assay type: cell-based, human; settings: 24 hours, concentrations as high as 1000 μg/ml
Experimental: as §1, §2

[4] = tested on: normal lymphocytes; test: MTT cytotoxicity / cell proliferation assay; assay type: cell-based, human; settings: 24 hours, concentrations as high as 1000 μg/ml
Experimental: as §1, §2

[5] = tested on: normal lymphocytes; test: Oxidative stress (GSH/GSSG levels); assay type: cell-based, human; settings: for GSH / GSH/GSSG / GSSG: 24 hours
Experimental: Oxidative stress (GSH/GSSG levels). The measure of the reduced (GSH) as well as oxidized (GSSG) levels of glutathione and their ratio are useful indicators for oxidative stress. The levels of GSH and GSSG were assayed by a colorimetric method using Biotech GSH/GSSG-412 kit (Oxis Research, Portland, Oreg.) according to manufacturer's protocol. Briefly, normal blood samples from healthy donors were incubated with different concentrations of RR1 for 24 hours in a 5% CO2 incubator at 37° C. For GSSG, 100 μl of each of the treated sample was frozen at −70° C. for 4 hours, thawed and added 290 μl of 5% meta phosphoric acid (MPA). The samples were vortexed for 15-20 seconds and centrifuged at 1000×g for 10 minutes. MPA extract (50 μl) was added to 700 μl of GSSG buffer that was used for the calorimetric assay. For GSH measurement 50 μl of the whole blood was frozen at −70° C., thawed and added 350 μl of 5% MPA, vortexed for 15-20 seconds and centrifuged at 10,000×g for 10 minutes. MPA extract (50 μl) was added to 3 ml of the assay buffer and used for further analysis. MPA buffer mixture (200 μl) of each standard and sample was transferred to a spectrophotometer cuvette, added 200 μl of chromogen followed by 200 μl of enzyme in the order and incubated at room temperature for 5 minutes. Afterwards, 200 μl of NADPH was added into the cuvette and changes in the absorbance at 412 nm were recorded in a BECKMAN spectrophotometer. The reaction rates were plotted using the absorbance values and the levels of GSH and GSSG were determined.

[6] = tested on: NF-κB in RAW264.7 macrophages; test: NF-κB DNA binding activity of nuclear extracts (ELISA, EMSA); assay type: cell-based, mouse
Experimental: The macrophages were treated with 100 μg/ml of RR1 and NF-κB activity of the nuclear extracts analyzed at 2, 4, 8, 14, and 20 hours after incubation using ELISA protocol.
NF-κB activity increased with escalating doses of RR1, reaching a plateau at 500 μg/ml.
NF-κB activity. RAW264.7 cells were incubated with 0, 100, 500 and 1000 μg/ml of RR1 for 8 hours and the nuclear proteins were extracted using the NF-κB activity kit from Active Motif, CA according to manufacturer's ELISA instructions. To visualize the NF-κB activation further, Electrophoretic Mobility Shift Assay (EMSA) was performed (Ghosh, S, and Karin, M., Cell, 2002, 109:S81-96; Young, S. H. et al. J. Biol Chem., 2001, 276:20781-20787; Lebron, F. et al. J Biol Chem., 2003, 278:25001-25008) with the nuclear protein. A double stranded probe that binds NF-κB (5′-[…]-3′, SANTA CRUZ BIOTECHNOLOGY, Santa Cruz, Calif.) was radio labeled with ^32P-ATP, and EMSA performed with 5 μg of nuclear extract. The EMSA reaction mixtures were incubated for 30 minutes at room temperature, and DNA-protein complexes were separated on 6% polyacrylamide gels and visualized by autoradiography. […] The nuclear extracts were analyzed for the protein content, and NF-κB activity analyzed using ELISA kit from ACTIVE MOTIF, Carlsbad, Calif.

solubility in water [1]: soluble in water | GSH ([5]; RR1 5 μg/ml): 365.08 ± 3.81 µM | GSH/GSSG ([5]; RR1 5 μg/ml): 14.05 ± 0.41 | GSSG ([5]; RR1 5 μg/ml): 22.77 ± 0.58 µM | GSH ([5]; RR1 10 μg/ml): 366.10 ± 0.97 µM | GSH/GSSG ([5]; RR1 10 μg/ml): 14.34 ± 0.35 | GSSG ([5]; RR1 10 μg/ml): 22.67 ± 0.41 µM | GSH ([5]; RR1 50 μg/ml): 364.43 ± 0.10 µM | GSH/GSSG ([5]; RR1 50 μg/ml): 14.25 ± 0.40 | GSSG ([5]; RR1 50 μg/ml): 22.75 ± 0.55 µM | oxidative stress in lymphocytes ([5]; indicated by GSH, GSSG and their ratio): does not produce any oxidative stress | time of stimulation at which NF-κB activity peaked ([6]; 100 μg/ml RR1, ELISA): 8 h | RR1 dose at which NF-κB activity reaches a plateau ([6]; 8 hours of stimulation): 500 to 1000 µg/mL and 500 µg/mL
Substance: (1,4)-α-D-glucan [RR1]
direct cytotoxic or cell proliferating effect (MTT) [2]: no direct cytotoxic or cell proliferating effect | direct cytotoxic or cell proliferating effect (MTT) [3]: no direct cytotoxic or cell proliferating effect | direct cytotoxic or cell proliferating effect (MTT) [4]: no direct cytotoxic or cell proliferating effect
